In this assay the target is IGP1 (IGP1/CORK1) ectodomain (Arabidopsis thaliana, UniProt F4I3K3). The experiment in a line: ITC. The class given is binding. As to conditions: purified ectodomain; ligand in LRR domain pocket, three subsites; N=1.

As usually defined, the Kd is the constant that tells how readily two partners part at equilibrium. Read a high Kd as weaker binding. In the case of `OC[C@H]1O[C@@H](O[C@H]2[C@H](O)[C@@H](O)[C@H](O[C@H]3[C@H](O)[C@@H](O)C(O)O[C@@H]3CO)O[C@@H]2CO)[C@H](O)[C@@H](O)[C@@H]1O` (stereo partly shown) [CEL3, cellotriose], the Kd is approximately 1000 nM.

Values taken from article doi:10.1101/2025.09.28.679030v1 (biorxiv, 2025).
